Measurements from patent US20220054617A1, “SUBUNIT VACCINE CONSTRUCTS FOR FLAVIVIRUSES” (priority 2018, published 2022).

Assays:
albumin = conditions: human, non-human primate, pig, rabbit, rat, mouse; cited from earlier work
TLR-7 = TLR-7 (Homo sapiens, UniProt Q9NYK1); conditions: in vitro
TLR-8 = TLR-8 (Homo sapiens, UniProt Q9NR97); conditions: in vitro
[1] = tested on: human whole blood or PBMCs

Sequence of TLR-7 (Q9NYK1 27-1049, species assumed): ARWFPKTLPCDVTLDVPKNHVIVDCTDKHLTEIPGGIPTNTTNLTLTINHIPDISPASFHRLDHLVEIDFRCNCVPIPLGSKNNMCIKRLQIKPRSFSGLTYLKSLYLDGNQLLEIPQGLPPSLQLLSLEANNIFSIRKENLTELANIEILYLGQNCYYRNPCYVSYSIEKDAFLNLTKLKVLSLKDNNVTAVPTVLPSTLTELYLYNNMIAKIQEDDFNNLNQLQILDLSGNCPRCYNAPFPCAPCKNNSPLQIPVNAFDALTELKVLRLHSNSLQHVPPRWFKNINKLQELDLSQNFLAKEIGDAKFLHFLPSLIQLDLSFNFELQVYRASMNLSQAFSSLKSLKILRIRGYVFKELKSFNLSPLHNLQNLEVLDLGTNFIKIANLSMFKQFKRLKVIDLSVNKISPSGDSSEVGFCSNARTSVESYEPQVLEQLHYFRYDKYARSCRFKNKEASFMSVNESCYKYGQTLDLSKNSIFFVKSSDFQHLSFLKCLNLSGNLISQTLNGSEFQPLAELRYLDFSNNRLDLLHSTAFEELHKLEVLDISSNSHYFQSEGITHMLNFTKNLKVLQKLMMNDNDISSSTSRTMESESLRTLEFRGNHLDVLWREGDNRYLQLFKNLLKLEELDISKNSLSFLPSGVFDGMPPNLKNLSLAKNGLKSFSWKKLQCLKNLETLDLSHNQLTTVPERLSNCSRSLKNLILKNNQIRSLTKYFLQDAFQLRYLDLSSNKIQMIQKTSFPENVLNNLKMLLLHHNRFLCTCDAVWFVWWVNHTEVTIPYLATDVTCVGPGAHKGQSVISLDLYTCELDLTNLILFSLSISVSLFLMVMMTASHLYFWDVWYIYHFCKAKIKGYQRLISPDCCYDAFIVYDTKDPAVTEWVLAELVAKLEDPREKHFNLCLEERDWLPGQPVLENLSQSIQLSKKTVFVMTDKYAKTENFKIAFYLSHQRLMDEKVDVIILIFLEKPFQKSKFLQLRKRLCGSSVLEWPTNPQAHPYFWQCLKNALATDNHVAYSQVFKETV
Sequence of TLR-8 (Q9NR97 27-1041): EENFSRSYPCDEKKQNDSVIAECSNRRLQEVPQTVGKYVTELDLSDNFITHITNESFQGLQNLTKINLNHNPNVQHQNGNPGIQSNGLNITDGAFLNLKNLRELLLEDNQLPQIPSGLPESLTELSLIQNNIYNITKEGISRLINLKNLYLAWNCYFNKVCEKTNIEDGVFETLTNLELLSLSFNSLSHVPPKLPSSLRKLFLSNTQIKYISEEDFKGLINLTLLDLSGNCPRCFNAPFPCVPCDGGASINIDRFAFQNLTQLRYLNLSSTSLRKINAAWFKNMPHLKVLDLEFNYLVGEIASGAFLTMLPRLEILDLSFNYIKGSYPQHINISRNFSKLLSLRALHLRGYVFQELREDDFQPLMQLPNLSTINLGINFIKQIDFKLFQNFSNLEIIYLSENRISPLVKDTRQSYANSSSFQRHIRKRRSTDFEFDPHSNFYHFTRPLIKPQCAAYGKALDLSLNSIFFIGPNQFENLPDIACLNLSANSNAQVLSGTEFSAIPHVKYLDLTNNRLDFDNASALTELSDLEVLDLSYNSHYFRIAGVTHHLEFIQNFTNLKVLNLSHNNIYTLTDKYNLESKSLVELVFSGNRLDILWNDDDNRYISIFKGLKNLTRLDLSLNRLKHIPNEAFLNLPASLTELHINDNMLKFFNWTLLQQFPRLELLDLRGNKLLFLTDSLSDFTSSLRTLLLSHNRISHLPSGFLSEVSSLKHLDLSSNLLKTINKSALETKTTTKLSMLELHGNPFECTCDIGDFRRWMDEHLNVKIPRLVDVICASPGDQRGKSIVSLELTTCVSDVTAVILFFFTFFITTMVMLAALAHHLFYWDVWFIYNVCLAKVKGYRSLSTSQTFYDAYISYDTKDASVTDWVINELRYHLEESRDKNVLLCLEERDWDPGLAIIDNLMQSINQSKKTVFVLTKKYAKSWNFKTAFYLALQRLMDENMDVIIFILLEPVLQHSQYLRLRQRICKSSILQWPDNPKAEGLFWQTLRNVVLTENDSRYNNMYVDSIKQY

| Substance | binding to albumin (albumin) | activity in TLR-7 primary assay (TLR-7) | activity in TLR-8 primary assay (TLR-8) | adjuvant effect (ZIKV; in vivo) | elicitation of neutralizing antibodies after the first boost (ZIKV; with the ZIKV antigen, several candidate adjuvants examined, preliminary screens) | cytokine induction [1] |
| --- | --- | --- | --- | --- | --- | --- |
| SGP portion: portion of the Streptococcal G protein used as N-terminal tag, SEQ ID NO: 14 (LAEAKVLANRELDKYGVSDYYKNLINNAKTVEGVKALIDEILAALPK) | good binding |  |  |  |  |  |
| covalent conjugate of an imidazoquinoline TLR7/TLR8 dual agonist [5-(3-(aminomethyl)benzyl)-3-pentylquinolin-2-amine] with hyaluronic acid [EY-4-143] |  | inactive | inactive | potent adjuvant | consistently elicit neutralizing antibodies after the first boost | silent |
